Data reported in publication PMC8571282 (Nature Communications, 2021).
Several values for one entry are separate records, joined by “and”; a condition that tells them apart may be missing. Equal values may be shown once. Read-outs that look alike come from different tables or passages of the source.

What was measured:
[1] = Toxicity-testing across the cell panel (range); conditions: human, African green monkey, hamster
[2] = Cytotoxicity assay (PrestoBlue), “F2” HAE; conditions: human; for viability at 72 h, 0.046 µM: “F2” primary human airway epithelial (HAE) cells; for CC50 at 72 h: CC50, “F2” HAE
[3] = set-up: method as in Mackman et al 2021 (JMC 2021, 64(8), 5001-5017); conditions: cynomolgus macaques, ref Mackman et al 2021 (JMC 2021, 64(8), 5001-5017); cited from earlier work
[4] = in vitro; conditions: hamster, % cell viability, 72 h
[5] = tested on: HEp-2 cells; test: Cytotoxicity assay (PrestoBlue), HEp-2; conditions: for % cell viability: 72 h
[6] = tested on: SARS-CoV-2 VOC γ (BZ/2021); type: in vivo, ferret (Mustela putorius furo)
[7] = tested on: “M2” primary HAE cells; test: Cytotoxicity assay (PrestoBlue), “M2” HAE; conditions: 72 h; for % cell viability: M2 HAE
[8] = tested on: HCT-8 cells; test: Cytotoxicity assay (PrestoBlue), HCT-8; conditions: for % cell viability: 72 h
[9] = type: in vivo, ferret (Mustela putorius furo); conditions: b.i.d.; for Bodyweight, Mean 2 (treated group) / Bodyweight, Mean Diff. (Vehicle vs. treated): Fig 3e; for Temperature, Mean 2 (treated group) / Temperature, Mean Diff. (Vehicle vs. treated): Fig 3d
[10] = tested on: SARS-CoV-2 WA1/2020; type: in vivo, ferret (Mustela putorius furo)
[11] = in vitro; conditions: male, human, % cell viability, M6 HAE, 0.046 µM
[12] = female, % cell viability, F2 HAE

SMILES: N#C[C@@]1(c2ccc3c(N)ncnn23)O[C@H](CO)[C@@H](O)[C@H]1O [GS-441524]
- CC50 at 72 h [1]: > 100 µM
- viability at 72 h, 0.046 µM [2, 12]: 92%
- viability at 72 h, 100 µM ([2]; % cell viability, F2 HAE): 86%
- CC50 at 72 h [2]: > 100 µM
- oral F [3]: 3.4%

SMILES: CC(C)C(=O)OCC1OC(C#N)(c2ccc3c(N)ncnn23)C(OC(=O)C(C)C)C1OC(=O)C(C)C (stereo not shown) [GS-621763]
- viability at 72 h, 0.046 µM ([4]; BHK-21, 0.046 µM): 89%
- viability at 72 h, 1.235 µM ([4]; BHK-21, 1.235 µM): 89%
- viability at 72 h, 33.333 µM ([4]; BHK-21, 33.333 µM): 103%
- % cell viability ([5]; HEp-2, 0.046 µM, 0.046 µM): 67% and 49%
- % cell viability ([5]; HEp-2, 3.704 µM, 3.704 µM): 107% and 97%
- CC50 ([5]; HEp-2, 72 h): 79.4 µM
- SARS-CoV-2 RNA copies in lungs of contacts (Fig 4G) ([6]; Contact - GS-621763): not detected
- Nasal turbinate RNA, Mean Diff. GS-621763 vs. Contact - GS-621763 ([6]; Fig 4e, […], 10 mg/kg b.i.d.): 0.9216
- Nasal turbinate RNA, Mean Diff. GS-621763 vs. Contact - Vehicle ([6]; Fig 4e, […], 10 mg/kg b.i.d.): -3.233
- Nasal turbinate RNA, group mean of Contact - GS-621763 (Transform of Brazil - Nasal Turbinate RNA) ([6]; Fig 4e, […], contacts of GS-621763-treated source animals): 4.287
- Turbinate titers, Mean Diff. GS-621763 vs. Contact - GS-621763 ([6]; Fig 4d, […], 10 mg/kg b.i.d.): 0
- Turbinate titers, Mean Diff. GS-621763 vs. Contact - Vehicle ([6]; Fig 4d, […], 10 mg/kg b.i.d.): -3.824
- Turbinate titers, group mean of Contact - GS-621763 (Transform of Brazil - Turbinate Titers) ([6]; Fig 4d, […], contacts of GS-621763-treated source animals): 0.9542
- Infectious virus titer in nasal lavage of contacts (Fig 4B) ([6]; in vivo): 5 pfu
- Nasal turbinate RNA, Mean Diff. Contact - Vehicle vs. Contact - GS-621763 ([6]; in vivo): 4.155
- Nasal turbinate RNA, Mean Diff. Vehicle vs. Contact - GS-621763 ([6]; in vivo): 4.881
- Turbinate titers, Mean Diff. Contact - Vehicle vs. Contact - GS-621763 ([6]; in vivo): 3.824
- Turbinate titers, Mean Diff. Vehicle vs. Contact - GS-621763 ([6]; in vivo): 3.511
- viral RNA in nasal turbinates of contact animals of treated source ferrets ([6]; in vivo): < 10^5 copies/g nasal turbinate
- virus transmission to untreated direct-contact animals ([6]; in vivo): completely blocked virus transmission
- viability at 72 h, 1.235 µM ([2]; female, % cell viability, F2 HAE, 1.235 µM): 100%
- viability at 72 h, 3.704 µM ([2]; female, % cell viability, F2 HAE, 3.704 µM): 117%
- viability at 72 h, 33.333 µM ([2]; female, % cell viability, F2 HAE, 33.333 µM): 82%
- viability at 72 h, 0.046 µM [2, 12]: 86%
- viability at 72 h, 100 µM ([2]; % cell viability, F2 HAE): 1%
- CC50 at 72 h [2]: 43.8 µM
- % cell viability ([7]; 0.046 µM): 88% and 92%
- % cell viability ([7]; 1.235 µM): 112%
- % cell viability ([7]; 3.704 µM): 115%
- % cell viability ([7]; 33.333 µM): 86% and 83%
- CC50 ([7]; “M2” HAE): 39.7 µM
- oral F [3]: 28%
- % cell viability ([8]; HCT-8, 0.046 µM, 0.046 µM): 75% and 72%
- % cell viability ([8]; HCT-8, 1.235 µM, 1.235 µM): 103%
- % cell viability ([8]; HCT-8, 33.333 µM, 33.333 µM): 96%
- % cell viability ([8]; HCT-8, 100 µM, 100 µM): 1%
- CC50 ([8]; HCT-8, 72 h): 74.6 µM
- Bodyweight, Mean 2 (treated group) ([9]; Row 1 (time), 3 mg/kg): 100
- Bodyweight, Mean Diff. (Vehicle vs. treated) ([9]; Row 1 (time), 3 mg/kg): 0
- Bodyweight, Mean 2 (treated group) ([9]; Row 1 (time), 10 mg/kg): 100
- Bodyweight, Mean Diff. (Vehicle vs. treated) ([9]; Row 1 (time), 10 mg/kg): 0
- Bodyweight, Mean 2 (treated group) ([9]; Row 2 (time), 3 mg/kg): 98.83
- Bodyweight, Mean Diff. (Vehicle vs. treated) ([9]; Row 2 (time), 3 mg/kg): 1.898
- Bodyweight, Mean 2 (treated group) ([9]; Row 2 (time), 10 mg/kg): 104.7
- Bodyweight, Mean Diff. (Vehicle vs. treated) ([9]; Row 2 (time), 10 mg/kg): -3.948
- Bodyweight, Mean 2 (treated group) ([9]; Row 3 (time), 3 mg/kg): 102.4
- Bodyweight, Mean Diff. (Vehicle vs. treated) ([9]; Row 3 (time), 3 mg/kg): -1.11
- Bodyweight, Mean 2 (treated group) ([9]; Row 3 (time), 10 mg/kg): 103.7
- Bodyweight, Mean Diff. (Vehicle vs. treated) ([9]; Row 3 (time), 10 mg/kg): -2.374
- Bodyweight, Mean 2 (treated group) ([9]; Row 4 (time), 3 mg/kg): 104.1
- Bodyweight, Mean Diff. (Vehicle vs. treated) ([9]; Row 4 (time), 3 mg/kg): -1.927
- Bodyweight, Mean 2 (treated group) ([9]; Row 4 (time), 10 mg/kg): 106.9
- Bodyweight, Mean Diff. (Vehicle vs. treated) ([9]; Row 4 (time), 10 mg/kg): -4.724
- Bodyweight, Mean 2 (treated group) ([9]; Row 5 (time), 3 mg/kg): 105.2
- Bodyweight, Mean Diff. (Vehicle vs. treated) ([9]; Row 5 (time), 3 mg/kg): -2.7
- Bodyweight, Mean 2 (treated group) ([9]; Row 5 (time), 10 mg/kg): 107.9
- Bodyweight, Mean Diff. (Vehicle vs. treated) ([9]; Row 5 (time), 10 mg/kg): -5.412
- Temperature, Mean 2 (treated group) ([9]; Row 1 (time), 3 mg/kg): 38.95
- Temperature, Mean Diff. (Vehicle vs. treated) ([9]; Row 1 (time), 3 mg/kg): 0.2
- Temperature, Mean 2 (treated group) ([9]; Row 1 (time), 10 mg/kg): 38.53
- Temperature, Mean Diff. (Vehicle vs. treated) ([9]; Row 1 (time), 10 mg/kg): 0.625
- Temperature, Mean 2 (treated group) ([9]; Row 2 (time), 3 mg/kg): 38.75
- Temperature, Mean Diff. (Vehicle vs. treated) ([9]; Row 2 (time), 3 mg/kg): -0.075
- Temperature, Mean 2 (treated group) ([9]; Row 2 (time), 10 mg/kg): 39.03
- Temperature, Mean Diff. (Vehicle vs. treated) ([9]; Row 2 (time), 10 mg/kg): -0.35
- Temperature, Mean 2 (treated group) ([9]; Row 3 (time), 3 mg/kg): 38.78
- Temperature, Mean Diff. (Vehicle vs. treated) ([9]; Row 3 (time), 3 mg/kg): -0.1
- Temperature, Mean 2 (treated group) ([9]; Row 3 (time), 10 mg/kg): 38.85
- Temperature, Mean Diff. (Vehicle vs. treated) ([9]; Row 3 (time), 10 mg/kg): -0.175
- Temperature, Mean 2 (treated group) ([9]; Row 4 (time), 3 mg/kg): 38.93
- Temperature, Mean Diff. (Vehicle vs. treated) ([9]; Row 4 (time), 3 mg/kg): -0.275
- Temperature, Mean 2 (treated group) ([9]; Row 4 (time), 10 mg/kg): 38.73
- Temperature, Mean Diff. (Vehicle vs. treated) ([9]; Row 4 (time), 10 mg/kg): -0.075
- Temperature, Mean 2 (treated group) ([9]; Row 5 (time), 3 mg/kg): 38.73
- Temperature, Mean Diff. (Vehicle vs. treated) ([9]; Row 5 (time), 3 mg/kg): -0.15
- Temperature, Mean 2 (treated group) ([9]; Row 5 (time), 10 mg/kg): 38.2
- Temperature, Mean Diff. (Vehicle vs. treated) ([9]; Row 5 (time), 10 mg/kg): 0.375
- Transform of Nasal turbinate titers, Mean (treated) ([10]; Fig 2f, 20 mg kg-1 b.i.d., sample size 4): 2.037
- Transform of Nasal turbinate titers, Difference between means (C - A) ± SEM ([10]; Fig 2f, treated minus Vehicle, 20 mg kg-1 b.i.d., unpaired t test): -2.239 ± 0.3026
- Transform of Small Intestine copies/gram, Mean (treated) ([10]; Fig 2i, 20 mg kg-1 b.i.d., sample size 4): 0
- Transform of Small Intestine copies/gram, Difference between means (C - A) ± SEM ([10]; Fig 2i, treated minus Vehicle, 20 mg kg-1 b.i.d., unpaired t test): -1.018 ± 1.018
- Transform of Large Intestine copies/gram, Mean (treated) ([10]; Fig 2j, 20 mg kg-1 b.i.d., sample size 4): 0
- Transform of Large Intestine copies/gram, Difference between means (C - A) ± SEM ([10]; Fig 2j, treated minus Vehicle, 20 mg kg-1 b.i.d., unpaired t test): -1.911 ± 1.104
- Transform of Nasal Turbinate RNA copies/g, Mean (treated) ([10]; Fig 2h, 20 mg kg-1 b.i.d., sample size 4): 3.868
- Transform of Nasal Turbinate RNA copies/g, Difference between means (C - A) ± SEM ([10]; Fig 2h, treated minus Vehicle, 20 mg kg-1 b.i.d., unpaired t test): -2.950 ± 0.3528
- SARS-CoV-2 RNA copies in lungs ([10]; in vivo): not detected
- SARS-CoV-2 infectious particles in lungs ([10]; in vivo): 109 pfu
- Virus titers from nasal lavages ([10]; in vivo): 9 pfu
- shed SARS-CoV-2 load in nasal lavages ([10]; in vivo): transiently detectable in lavages of only one ferret
- viral RNA copy numbers in turbinates, difference between vehicle and treatment groups ([10]; in vivo): three
- virus in nasal turbinates 4 days after infection ([10]; in vivo): undetectable
- viability at 72 h, 0.046 µM [11]: 92%
